The record followed here is publication PMC3973022, “Quercetin and quercetin 3-O-glycosides from Bauhinia longifolia (Bong.) Steud. show anti-Mayaro virus activity” (Parasites & Vectors, 2014).

For one data set, the system named is Mayaro virus (MAYV). Briefly: microbe, parasite or virus in culture. The class given is cell-based. Particulars: for IC90: Vero, 24 h, read-out: IC90 (90% inhibitory concentration of viral replication); for IC50: read-out: IC50 (50% inhibitory concentration of viral replication), MAYV MOI 0.1 in Vero cells, 24 h treatment; for anti-MAYV activity (in words): concentrations tested 0–100 μg/ml. The protocol: (§1) Vero cells (African green monkey kidney, ATCC CCL-81) were grown at 37°C with 5% CO2, in Dulbecco’s modified Eagle’s medium (DMEM) (Life Technologies, USA) supplemented with 5% fetal bovine serum (Cultilab, BRA), 50 IU/mL of penicillin, and 50 μg/mL of streptomycin (Sigma-Aldrich, USA). Mayaro viruses (ATCC VR-66, lineage TR 4675) were propagated in Vero cells and viral stocks in 10% glycerol were kept at -70°C. Virus titer was determined by plaque assay (described under ‘Antiviral activity assay’).
Antiviral activity was evaluated using a virus yield inhibition assay. Briefly, confluent cell monolayers grown in 24-well plates were infected with MAYV (multiplicity of infection = 0.1) for 1 hour, then rinsed with PBS and treated for 24 hours (at 37°C and 5% CO2) with different concentrations (0–100 μg/ml) of flavonoids or extracts diluted in culture medium. After treatment, culture supernatants were recovered and used for titration of extracellular infectious virus particles. For virus titration, confluent cell monolayers in 24-well plates were infected with serial dilutions of recovered supernatants for 1 hour at 37°C, 5% CO2. After inoculum removal, cells were rinsed with PBS and the monolayer was incubated with fresh medium with 2% carboxymethylcellulose (Sigma-Aldrich, USA) for 48 hours at 37°C, 5% CO2. Finally, cells were fixed with 20% formaldehyde and stained with 0.5% crystal violet in 20% ethanol, and viral plaques were counted. […] P-values < 0.05 were considered statistically significant.

Data set [1] in a line: Cytotoxicity by dye-uptake (neutral red) assay. Particulars: African green monkey. The method, then:
as §1
Briefly, confluent cultures of Vero cells in 96-well microplates were treated with culture media containing different concentrations of the substances being tested. After 24 hours, the culture medium was replaced by a solution of 50 μg/mL neutral red and the cells were incubated for 3 hours, at 37°C, 5% CO2. Cells were then fixed with 20% formaldehyde and extracted with 50% methanol and 1% acetic acid, before measurement of absorbance at λ490 nm, using a spectrophotometer, to detect neutral red incorporation by living cells.

In brackets after ≈: the same amount, converted by molar mass. Entries after “also recorded” stand apart in the source; their conditions may differ.

Regarding `C[C@@H]1O[C@@H](Oc2c(-c3ccc(O)c(O)c3)oc3cc(O)cc(O)c3c2=O)[C@H](O)[C@H](O)[C@H]1O` [Quercitrin, quercetin-3-O-α-rhamnoside], in the data set with Mayaro virus (MAYV) (Mayaro virus), the IC90 is above 100 µg/mL and the IC50 is above 100 µg/mL. Besides, in the data set on Mayaro virus (MAYV) (Vero cells), the “anti-MAYV activity (in words)” value is recorded as “did not show significant antiviral activity; also recorded: absence of anti-MAYV activity”. This molecule also yielded a cytotoxic concentration (CC50) at 24 h in data set [1] of 411 ± 46 µg/mL (≈ 917 µM).

Take `O=c1c(OC2OCC(O)C(O)C2O)c(-c2ccc(O)c(O)c2)oc2cc(O)cc(O)c12` (stereo not drawn) [Guaijaverin, quercetin-3-O-α-arabinoside]: in the data set with Mayaro virus (MAYV) (Mayaro virus), the IC90 was above 100 µg/mL and the IC50 was above 100 µg/mL. The “anti-MAYV activity (in words)” value with Mayaro virus (MAYV) (Vero cells) is “did not show significant antiviral activity; also recorded: absence of anti-MAYV activity”. The same molecule returned a CC50 at 24 h in data set [1] of 795 ± 54 µg/mL (≈ 1830 µM).

For `O=c1c(O)c(-c2ccc(O)c(O)c2)oc2cc(O)cc(O)c12` [Quercetin, quercetin], the “SI (Selectivity Index = CC50/IC50)” value in the data set with Mayaro virus (MAYV) (CC50 in Vero cells / IC50 against MAYV) came out at 94. In addition, in the data set on Mayaro virus (MAYV) (Mayaro virus), the IC90 turned out to be 19 ± 0.7 µg/mL (≈ 62.9 µM) and the IC50 was found to be 10 ± 0.7 µg/mL (≈ 33.1 µM). Further, the inhibition at 25 µg/mL with Mayaro virus (MAYV) (Mayaro virus, at 25 μg/mL, Vero cells, read-out: inhibition of MAYV replication/production) was above 90%. In addition, the “anti-MAYV activity (in words)” value in the data set with Mayaro virus (MAYV) (Vero cells) is recorded as “showed significant anti-MAYV activity”. The CC50 at 24 h in data set [1] is 941 ± 123 µg/mL (≈ 3110 µM).

Turning to `NC(=O)c1ncn([C@@H]2O[C@H](CO)[C@@H](O)[C@H]2O)n1` [Ribavirin, reference compound], in the data set on Mayaro virus (MAYV) (Mayaro virus), the IC90 is above 100 µg/mL and the IC50 worked out at 62 ± 4 µg/mL (≈ 254 µM). In data set [1], the CC50 at 24 h worked out at 523 ± 42 µg/mL (≈ 2140 µM).
